Measured values taken from paper PMC8145572 (Viruses, 2021).
Entries after “also recorded” stand apart in the source; their conditions may differ. Read-outs that look alike come from different tables or passages of the source.

How the values were obtained:
[1] = tested on: DENV-infected SK-N-MC cells; test: WST-1 cell viability assay, DENV-infected SK-N-MC cells; type: cell-based, human; conditions: MOI 0.1, 3 days
HUH-7 cells = test: WST-1 cell proliferation assay, uninfected HUH-7 cells; conditions: uninfected HUH-7 cells; for CC50: 72 h; for cytotoxicity in uninfected cells: evaluated concentrations
SK-N-MC cells = test: WST-1 cell proliferation assay, uninfected SK-N-MC cells; conditions: uninfected SK-N-MC cells; for CC50: 72 h; for cytotoxicity in uninfected cells: evaluated concentrations
[2] = tested on: Dengue virus serotype 2 (DENV2), strain New Guinea C; test: Combination drug assay UV-4B and IFN, DENV-infected SK-N-MC cells, plaque assay; type: cell-based; conditions: 400 µM
[3] = tested on: Dengue virus serotype 2 (DENV2), strain New Guinea C; test: Antiviral evaluation; type: cell-based; conditions: HFF-1 cells; for EC50: MOI 0.1, AUC of viral burden over 2 days; for viral burden in all treatment arms: all concentrations
[4] = Phase I study, one-time dose of 1000 mg; cited from earlier work
[5] = tested on: Dengue virus serotype 2 (DENV2), strain New Guinea C; test: Combination drug assay UV-4B and IFN, DENV-infected HUH-7 cells, plaque assay; type: cell-based; conditions: day 2, 25 µM
[6] = tested on: DENV-infected HUH-7 cells; test: WST-1 cell viability assay, DENV-infected HUH-7 cells; type: cell-based, human; conditions: MOI 0.01, 3 days
[7] = tested on: Dengue virus serotype 2 (DENV2), strain New Guinea C; test: Antiviral evaluation; type: cell-based; conditions: SK-N-MC cells; for EC50: MOI 0.1, AUC of viral burden over 4 days
HFF-1 cells = test: WST-1 cell proliferation assay, uninfected HFF-1 cells; conditions: uninfected HFF-1 cells; for CC50: 72 h; for cytotoxicity in uninfected cells: evaluated concentrations
[8] = tested on: DENV-infected HFF-1 cells; test: WST-1 cell viability assay, DENV-infected HFF-1 cells; type: cell-based, human; conditions: MOI 1, 3 days
[9] = tested on: Dengue virus serotype 2 (DENV2), strain New Guinea C; test: Antiviral evaluation; type: cell-based; conditions: for EC50: MOI 0.01, AUC of viral burden over 3 days
[10] = WST-1 cell proliferation assay, uninfected HUH-7 cells; conditions: human
[11] = WST-1 cell proliferation assay, uninfected SK-N-MC cells; conditions: human
[12] = WST-1 cell proliferation assay, uninfected HFF-1 cells; conditions: human

Compound	cell viability of infected cells [1]	CC50 (HUH-7 cells)	CC50 (SK-N-MC cells)	cell viability of infected cells [6]	CC50 (HFF-1 cells)	cell viability of infected cells [8]	EC50 ([9]; HUH-7 cells, read-out: EC50)	cytotoxicity in uninfected cells (HUH-7 cells)	CC50 at 72 h [10]	CC50 at 72 h [11]	cytotoxicity in uninfected cells (SK-N-MC cells)	EC50 ([3]; Dengue virus, DENV2, 48 h)	viral burden in all treatment arms [3]	EC50 ([7]; Dengue virus, DENV2, 96 h)	CC50 at 72 h [12]	cytotoxicity in uninfected cells (HFF-1 cells)	other results
COCCCCCCCCCN1C[C@H](O)[C@@H](O)[C@H](O)[C@H]1CO.Cl [UV-4B]	concentrations ≥ 25 µM caused dramatic increases in cell viability	135 µM	> 400 µM	remained comparable to the infected control; also recorded: declines in cell viability observed at UV-4B concentrations of 100 and 400 µM	> 400 µM	moderate declines in viability observed at 100 and 400 µM	23.8 µM										decline in peak viral titers, monotherapy [2]: 3.8 log10 PFU/mL; EC50 [3]: 37.4 µM; Cmax [4]: ~40 µM; reduction of viral titers, monotherapy [5]: 1.7 log10 PFU/mL; EC50 [7]: 49.4 µM; decrease in viral titers ([7]; day 2, 25 µM): 1.6 log10 PFU/mL; decrease in viral titers ([7]; day 2, 400 µM): 3.6 log10 PFU/mL
interferon-alpha [IFN]		>10,000 IU/mL	1074 IU/mL	concentrations ≥ 10 IU/mL markedly increased cell viability	>10,000 IU/mL	Percent cell viability stayed constant											reduction of peak titers ([9]; HUH-7 cells, 100 IU/mL): 2.4 log10 PFU/mL; effect on production of infectious virus ([9]; HUH-7 cells, 10,000 IU/mL): completely curbed the production of infectious virus
CC(C)OC(=O)[C@H](C)N[P@](=O)(OC[C@H]1O[C@@H](n2ccc(=O)[nH]c2=O)[C@](C)(F)[C@@H]1O)Oc1ccccc1 [SOF, sofosbuvir]	minimal changes in cell viability			yielded improvements in cell viability		did not change relative to the uninfected control		no cytotoxicity	> 10 µM	> 10 µM	no cytotoxicity	> 10 µM	comparable to the no treatment control	> 10 µM	> 10 µM	no cytotoxicity	viral burden in all treatment arms ([7]; all concentrations): comparable to the no treatment control; EC50 ([9]; Dengue virus, DENV2, 72 h, HUH-7 cells, read-out: EC50): 6.96 µM; viral titers ([9]; HUH-7 cells, 10 µM): below the limit of detection; reduction in viral burden ([9]; HUH-7 cells, 4 and 6 µM): ~100 fold
NC(=O)c1nc(F)c[nH]c1=O [FAV, favipiravir]	limited effect on cell health			limited effect on cell health		limited effect on cell health	149 µM	no cytotoxicity	> 500 µM	> 500 µM	no cytotoxicity	> 500 µM	completely ineffective	288 µM	> 500 µM	no cytotoxicity	lowering of viral titers ([7]; Day 2, 250 µM): approximately 0.6 log10 PFU/mL; total reduction of viral titers ([7]; Day 2, 500 µM): 1.3 log10 PFU/mL; additional decrease of viral titers over 250 µM ([7]; Day 2, 500 µM versus 250 µM): 0.7 log10 PFU/mL; EC50 ([9]; Dengue virus, DENV2, Huh-7, 72 h, HUH-7 cells): 147 µM; decrease in titers relative to the control ([9]; HUH-7 cells, 250 µM): approximate tenfold decrease; maximum reduction in viral titers ([9]; HUH-7 cells, highest concentration evaluated): 1.2 log10 PFU/mL
